In article PMC5468247, “Development of a selective agonist for relaxin family peptide receptor 3” (Scientific Reports, 2017):

Tests used:
human RXFP3 [1] = target: T1, human RXFP3 (Homo sapiens, UniProt Q9NSD7); experiment: Receptor binding assay, NanoLuc-conjugated R3/I5 tracer competition; conditions: compared with R3/I5
T1 construct: expressed in transfected cells; host or cells: HEK293T
T1 sequence (Q9NSD7 1-469): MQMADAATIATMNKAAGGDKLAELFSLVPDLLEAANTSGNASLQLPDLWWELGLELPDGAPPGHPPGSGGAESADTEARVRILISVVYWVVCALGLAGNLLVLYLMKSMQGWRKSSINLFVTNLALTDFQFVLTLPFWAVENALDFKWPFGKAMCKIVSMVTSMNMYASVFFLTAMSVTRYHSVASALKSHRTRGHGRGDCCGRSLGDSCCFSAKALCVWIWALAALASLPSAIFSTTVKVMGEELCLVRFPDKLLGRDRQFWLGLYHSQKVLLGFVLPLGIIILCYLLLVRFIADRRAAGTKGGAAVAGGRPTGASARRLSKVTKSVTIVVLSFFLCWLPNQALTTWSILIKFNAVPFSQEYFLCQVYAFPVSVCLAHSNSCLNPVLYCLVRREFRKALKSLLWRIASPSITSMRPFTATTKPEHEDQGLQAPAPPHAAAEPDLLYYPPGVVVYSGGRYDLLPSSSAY

human RXFP4 [2] = target: T2, human RXFP4 (Homo sapiens, UniProt Q8TDU9); experiment: as above; conditions: compared with R3/I5
T2 construct: expressed in transfected cells; host or cells: HEK293T
T2 sequence (Q8TDU9 whole entry): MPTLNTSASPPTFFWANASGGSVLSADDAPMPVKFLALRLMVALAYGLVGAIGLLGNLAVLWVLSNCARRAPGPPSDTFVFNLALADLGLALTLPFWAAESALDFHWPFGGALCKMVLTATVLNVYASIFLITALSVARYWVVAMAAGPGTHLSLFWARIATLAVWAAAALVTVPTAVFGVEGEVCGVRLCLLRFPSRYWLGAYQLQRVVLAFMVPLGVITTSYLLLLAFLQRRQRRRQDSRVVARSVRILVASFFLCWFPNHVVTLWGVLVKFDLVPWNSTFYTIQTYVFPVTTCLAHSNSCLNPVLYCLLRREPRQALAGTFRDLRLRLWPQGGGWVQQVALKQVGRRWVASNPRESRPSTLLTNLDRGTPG

human RXFP3 [3] = target: T1, human RXFP3; experiment: Receptor activation assay, CRE-controlled NanoLuc reporter; assay type: cell-based; conditions: CRE-NanoLuc reporter, human RXFP3; relative to R3/I5
human RXFP4 [4] = target: T2, human RXFP4; experiment: as above; assay type: cell-based; conditions: relative to R3/I5

CC[C@H](C)[C@@H]1NC(=O)[C@H](Cc2ccccc2)NC(=O)[C@H](CCC(=O)O)NC(=O)[C@H](CCCNC(=N)N)NC(=O)CNC(=O)[C@@H](NC(=O)[C@H](CC(C)C)NC(=O)[C@H](CCCNC(=N)N)NC(=O)[C@@H](NC(=O)CNC(=O)[C@H](Cc2ccc(O)cc2)NC(=O)[C@@H]2CCCN2C(=O)[C@H](C)NC(=O)[C@H](C)NC(=O)[C@H](CCCNC(=N)N)NC(=O)[C@@H]2CCC(=O)N2)C(C)C)CSSC[C@@H]2NC(=O)[C@@H](NC(=O)[C@H](CC(C)C)NC(=O)[C@@H](NC(=O)[C@H](CCC(N)=O)NC(=O)[C@H](CC(C)C)NC(=O)[C@H](CC(=O)O)NC(=O)[C@H](CCC(N)=O)NC(=O)[C@H](CCCNC(=N)N)NC(=O)[C@H](CO)NC(=O)[C@H](CCCNC(=N)N)NC(=O)[C@H](CCCNC(=N)N)NC(=O)[C@H](CO)NC(=O)[C@@H](N)CCCNC(=N)N)[C@@H](C)O)CSSC[C@H](NC(=O)CNC(=O)[C@H](CC(=O)O)NC(=O)[C@H]([C@@H](C)O)NC2=O)C(=O)N[C@@H](CO)C(=O)N[C@@H](CCSC)C(=O)N[C@@H]([C@@H](C)O)C(=O)N[C@@H](CC(=O)O)C(=O)N[C@@H](CC(C)C)C(=O)N[C@@H](CO)C(=O)N[C@@H](C)C(=O)N[C@@H](CC(C)C)C(=O)N[C@H](C(=O)O)CSSC[C@@H](C(=O)NCC(=O)N[C@@H](CO)C(=O)N[C@@H](CCCNC(=N)N)C(=O)N[C@@H](Cc2c[nH]c3ccccc23)C(=O)O)NC(=O)[C@H]([C@@H](C)O)NC(=O)[C@H](Cc2ccccc2)NC(=O)[C@H]([C@@H](C)CC)NC(=O)[C@H](C(C)C)NC(=O)[C@H](C)NC(=O)[C@H](CCCNC(=N)N)NC1=O [[∆B23]R3/I5]
binding potency towards RXFP3, in words (human RXFP3 [1]): retained considerable binding potency
binding potency towards RXFP4, in words (human RXFP4 [2]): retained considerable binding potency
fold lower activation potency towards RXFP3 compared with R3/I5 (human RXFP3 [3]): ~ 300 fold
fold lower activation potency towards RXFP4 compared with R3/I5 (human RXFP4 [4]): ~ 300 fold
